Assay results taken from patent publication US7132446B1, “Isolation of a dimer di-gallate, a potent endothelium-dependent vasorelaxing compound” (University of South Florida, priority 2001, dated 2006).
One block for each molecule: values may come before it.

Key:
[1] = test system: phenylephrine-contracted endothelium-intact rat aortic rings; assay: Endothelium-dependent relaxation (EDR) bioassay, endothelium-intact aortic rings; format: cell-based; settings: for threshold concentration (for 10% relaxation): intact aortic rings; for EDR activity (relaxation of endothelium-intact rings): phenylephrine-contracted endothelium-intact rings
Description: Aortic ring preparation and bioassay. The procedure for preparation of rat aortic rings and general aspects of determining mechanical activity has been previously described. Briefly, male Sprague-Dawley rats (200–225 g) were euthanized with an overdose of sodium pentobarbital (100 mg/kg, i.p.), bled, and the thoracic aorta excised, cleaned, and rings (3–4 mm in length) were cut, taking care not to disturb the endothelium. In some instances the endothelium was deliberately removed by gently rubbing the lumen with a curved forceps. The rings were suspended in tissue baths containing a physiologic salt solution (PSS) with the following composition (in millimolar): 118 NaCl; 4.7 KCl; 25 NaHCO3; 1.2 MgSO4; 1.2 NaH2PO4; 0.026 EDTA; 1.5 CaCl2; 11 glucose. The solution was bubbled continuously with O2/CO2 (95%/5%), and maintained at 37° C. Activity was recorded on a Grass polygraph. After equilibration for at least 1 hr under 1.5 g of tension, tissues were contracted submaximally (approximately 80% of Emax) with phenylephrine (˜1 μM), and then 3 μM acetylcholine, a known EDR-active compound, was added to the bath to test for intactness of the endothelium. Rings were washed with PSS three times over the next 45 min. prior to the next sequence. EDR activity of HPLC peaks was determined by first contracting aortic rings with phenylephrine, as above, then generating concentration-response curves for relaxation by adding each peak sample to the bath, beginning with a sub-threshold concentration and adding increasing amounts until maximum relaxation is achieved. To test for endothelium-dependence, denuded aortic rings were used. Successful endothelium removal was established by a lack of relaxation response to 3 μM acetylcholine. […] Statistical methods. Data are presented as means±SEM. EC50s were determined from concentration-response curves, utilizing nonlinear regression analysis software (GraphPad Prizm, San Diego, Calif.).

[2] = test system: endothelium-denuded rat aortic rings; assay: Relaxation bioassay, endothelium-denuded aortic rings; format: cell-based; settings: de-endothelialized rings
Description: Aortic ring preparation and bioassay. The procedure for preparation of rat aortic rings and general aspects of determining mechanical activity has been previously described. Briefly, male Sprague-Dawley rats (200–225 g) were euthanized with an overdose of sodium pentobarbital (100 mg/kg, i.p.), bled, and the thoracic aorta excised, cleaned, and rings (3–4 mm in length) were cut, taking care not to disturb the endothelium. In some instances the endothelium was deliberately removed by gently rubbing the lumen with a curved forceps. The rings were suspended in tissue baths containing a physiologic salt solution (PSS) with the following composition (in millimolar): 118 NaCl; 4.7 KCl; 25 NaHCO3; 1.2 MgSO4; 1.2 NaH2PO4; 0.026 EDTA; 1.5 CaCl2; 11 glucose. The solution was bubbled continuously with O2/CO2 (95%/5%), and maintained at 37° C. Activity was recorded on a Grass polygraph. […] EDR activity of HPLC peaks was determined by first contracting aortic rings with phenylephrine, as above, then generating concentration-response curves for relaxation by adding each peak sample to the bath, beginning with a sub-threshold concentration and adding increasing amounts until maximum relaxation is achieved. […]

blood vessels in vitro = settings: background statements; cited from earlier work

EC50 ([1]; phenylephrine-contracted intact rings): 760 nM
EC50 for relaxation of intact aortic rings ([1]; phenylephrine-contracted intact rings, mean±SEM, n=4 rats (3–6 concentration-response curves/rat aorta)): 0.67 ± 0.04 µg/mL
SMILES: O=C(O[C@@H]1[C@@H](c2c(O)cc(O)c3c2O[C@H](c2ccc(O)c(O)c2)[C@H](OC(=O)c2cc(O)c(O)c(O)c2)C3)c2c(O)cc(O)cc2O[C@@H]1c1ccc(O)c(O)c1)c1cc(O)c(O)c(O)c1 (single isomer, unassigned; peak f2) [peak F2, epicatechin-galloyl-epicatechin-gallate]
threshold concentration (for 10% relaxation) [1]: approximately 0.35 μg/ml
threshold concentration (for 10% relaxation) ([1]; molar value printed in brackets): ~0.4 µM
EDR activity (relaxation of endothelium-intact rings) [1]: relaxed
EDR activity (relaxation of endothelium-intact rings) ([1]; listed as dimer digallate): substantial EDR activity
relaxing activity on endothelium-denuded rings [2]: no effect

SMILES: N=C(N)NCCC[C@H](N)C(=O)O [L-arginine, reference compound]
effect on the B2-di-gallate-induced relaxation of intact rings ([1]; added to the bath after peak F2, L-arginine added after NNA): caused the tissue to relax once again

SMILES: Oc1cc(O)c2c(c1)OC(c1ccc(O)c(O)c1)C(O)C2O (stereo not drawn) [leucocyanidol]
EDR activity (previous studies) (blood vessels in vitro): some activity at lower concentrations
